System: rabbits
Test: Rabbit pyrogen test (USP<151>)
Settings: CRX-601 per kg animal body weight

Work on `CCCCCCCCCCC[C@H](CC(=O)NC1C(OC(=O)C[C@@H](CCCCCCCCCCC)OCCCCCCCCCC)[C@H](OP(=O)(O)O)C(CO)O[C@H]1OC[C@H](NC(=O)C[C@@H](CCCCCCCCCCC)OCCCCCCCCCC)C(=O)O)OCCCCCCCCCC` (stereo partly shown) [free CRX-601] yielded a Max non-pyrogenic dose of 0.001 to 0.002 µg/kg.

Reference: patent US20180318415A1, “NOVEL ADJUVANT FORMULATIONS” (GLAXOSMITHKLINE BIOLOGICALS, SA, priority 2015, published 2018)
